The values below come from patent US20250127741A1, “MEDICINAL COMPOSITION COMPRISING RIBOSE AND AMINO ACIDS” (MEE-HU PHARMA GMBH, priority 2021, published 2025).

For this test, the system named is resistant strain of E. Coli (O157.H7). The test is described as follows: In vivo animal study #2: granuloma pouch model in Wistar rats, bacterial counts in pouch fluid. To be noted: male Wistar rats; given alone every 12 h, six doses (co-trimoxazole 30 mg/kg i.p.; inventive composition 500 mg/kg p.o.); all time intervals. The protocol: Male Wistar rats, weighing 200-250 g, were infected with a resistant strain of E. Coli (O157.H7) using the granuloma pouch model. Specifically, pouches were produced by injecting 30 ml of sterile filtered air followed by injection of 0.5 ml of 0.5% croton oil in sesame seed oil deep into the loose connective dorsal tissue. Two days later, approximately 10 ml of air were withdrawn, and after 2 more days, 2 ml of 1% peptone and 0.35% agar in saline solution were injected in the pouch. On day 10, rats were infected with 10^6 CFU of E. coli suspended in 1.5 ml of THB containing 2.5% gastric mucin and 0.35% agar.
The rats were divided in groups of five rats, and the following drugs, either alone or concurrently administered, were administered every 12 h for three consecutive days, making a total of six doses, starting 24 h after infection: co-trimoxazole (Septrin, GlaxoSmithKline) 30 mg/kg (i.p) and the inventive composition 500 mg/kg (p.o) (the 500 mg referring to the weight of the lyophilisate of Table 1 contained in the amount of mixed solution administered). […]
Samples (0.5 mL) of pouch fluid were withdrawn from each animal just before treatment (0 time), 3 h after the first dose, just before the last dose, 3 and 24 h after the last dose. […] The results represent the average values obtained from all the animals in the same group at the same intervals and expressed as log 10 CFU/ml. […]

co-trimoxazole [cotrimoxazole]: the “bacterial counts in pouch fluid, difference to control group” value is “no significant differences”.
